Data on ten compounds can be found in ChEMBL document CHEMBL3045968, “Antitumor activities of some new 1,3,2-oxaza- and 1,3,2-diazaphosphorinanes against K562, MDA-MB-231, and HepG2 cells” (Med Chem Res, 2012).

In one data set the test system is K562. Briefly: cells. As to conditions: Homo sapiens, K562, 48 h.
The next data set has as its system MDA-MB-231. Briefly: cells. As to conditions: Homo sapiens, MDA-MB-231, 48 h.
A further data set concerns HepG2. Briefly: cells. The settings on record: Homo sapiens, HepG2, 48 h.
Another data set is described as follows: physchem. As to conditions: octanol/water.
The conditions of data set [1]: octanol/water.
Description: Lipophilicity, log P of the compound

Description for HepG2: Cytotoxicity against Homo sapiens (human) HepG2 cells after 48 hr by MTT assay
Description for K562: Cytotoxicity against Homo sapiens (human) K562 cells after 48 hr by MTT assay
Description for MDA-MB-231: Cytotoxicity against Homo sapiens (human) MDA-MB-231 cells after 48 hr by MTT assay
Description for physchem: Lipophilicity, log P of the compound

In general, IC50 refers to the concentration needed to halve the response being measured. A lower IC50 goes with higher potency. As to `Nc1ccc(S(N)(=O)=O)cc1` [SULFANILAMIDE], the 50% inhibitory concentration (IC50) with K562 turned out to be 200 nM; with MDA-MB-231, 90 nM; in the data set with HepG2, 80 nM.
The logP is a log measure of how a compound divides between an organic and an aqueous phase. A lower logP goes with lower lipophilicity. For `O=[N+]([O-])c1ccc(NP2(=O)NCCCO2)cc1` (stereo not drawn), in “physchem”, the logP was -0.53. Further, the IC50 in the data set with K562 was determined as 890 nM; in the data set with MDA-MB-231, 90 nM; in the data set on HepG2, 150 nM.
On to `Cc1ccc(OP2(=O)NCCCO2)cc1` (stereo not drawn), for which, in “physchem”, the lipophilicity (logP) amounted to 0.76. Further, the results for the IC50 in the data set on K562, with MDA-MB-231 and with HepG2 were 710 nM, 870 nM and 590 nM, respectively.
As to `NS(=O)(=O)c1ccc(NP2(=O)NCCCN2)cc1`, the lipophilicity (logP) in “physchem” was 1.56. Besides, the IC50 with K562 was 190 nM; in the data set on MDA-MB-231, 110 nM; with HepG2, 130 nM.
Regarding `NS(=O)(=O)c1ccc(NP2(=O)NCCCO2)cc1` (stereo not drawn), the logP in the data set “physchem” amounted to 1.88. For the same compound, the IC50 with K562 worked out at 150 nM; in the data set with MDA-MB-231, 170 nM; with HepG2, 140 nM.
On the same counts, the results for `O=P1(Nc2ccccc2)NCCCO1` (stereo not drawn) are 0.29, 550 nM, 830 nM and 600 nM.
In the case of `Cc1ccc(OP2(=O)NCC(C)(C)CN2)cc1`, the IC50 in the data set with K562 was 1440 nM; in the data set on MDA-MB-231, 230 nM; in the data set on HepG2 it was 2200 nM. The same compound had a logP in data set [1] of 0.12.
For `COc1ccc(NP2(=O)NCCCO2)cc1` (stereo not drawn), the logP in “physchem” is -0.71. The results for the IC50 with K562, in the data set with MDA-MB-231 and in the data set with HepG2 were 200 nM, 230 nM and 60 nM, respectively.
In the same order, the values of `CC1(C)CNP(=O)(Nc2ccccc2)NC1` are -0.03, 3110 nM, 2040 nM and 3170 nM.
Consider `O=P1(N(CCCl)CCCl)NCCCO1` (stereo not drawn) [CYCLOPHOSPHAMIDE ANHYDROUS], for which the IC50 in the data set with K562 came to 150 nM; in the data set on MDA-MB-231, 90 nM; in the data set with HepG2, 240 nM.
